Assay results taken from patent US20180338964A1, “3-(PIPERIDIN-4-YL)-ISOXAZOL-3(OH)-ONES FOR TREATMENT OF DERMATOLOGIC DISORDERS” (Emeriti Pharma AB, priority 2014, published 2018).
pIC50, pKd: −log10 of the molar value.

Assays:
plasminogen kringle 1 = target: T1, plasminogen kringle 1 (Homo sapiens, UniProt P00747); assay: NMR competition assay (1D T1rho) for binding to plasminogen kringle 1, tranexamic acid as reference
T1 construct: Signal intensities from free tranexamic acid are reduced when recombinant kringle 1 protein is added
Description: The NMR experiment identifies compounds binding to the lysine binding pocket in a competition assay where tranexamic acid was used as reference compound and 1D T1rho experiments were used for detection. Signal intensities from free tranexamic acid are reduced when recombinant kringle 1 protein is added due to binding to this protein. The NMR signals from tranexamic acid regain intensity when an added compound displaces it from the lysine binding pocket of kringle 1.
The compounds were run one-by-one at a concentration between 15 and 300 μM. The concentration of protein and tranexamic acid were 10 and 100 μM respectively. A test compound resulting in at least 10% increase in tranexamic acid intensity (displacement) was considered binding to kringle 1.

[1] = system: fibrinolysis in human plasma clot (tPA activation of plasminogen); settings: citrated platelet poor human plasma, tPA 80 ng/ml, 37° C.; for pIC50: read-out: IC50 (clot-lysis time prolonged to twice the vehicle value); for IC90: read-out: IC90 (clot-lysis time prolonged to nine times the vehicle value)
[2] = treatment of bleeding disorders; cited from earlier work
[3] = oral TXA; cited from earlier work
melasma = settings: cited from earlier work
stratum corneum barrier = settings: topically applied, healthy volunteer, after experimental damage to stratum corneum; cited from earlier work
[4] = system: stratum corneum barrier function; settings: topical 3% (˜0.2M) TXA, rosacea patients; cited from earlier work
[5] = system: stratum corneum protease activity; settings: ˜13% EACA (1 M) cream, rosacea patients; cited from earlier work

T1 sequence (P00747 103-181 limits assumed): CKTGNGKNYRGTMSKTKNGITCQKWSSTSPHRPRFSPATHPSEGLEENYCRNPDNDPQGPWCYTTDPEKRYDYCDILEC

SMILES | pKd (plasminogen kringle 1) | also measured
CS(=O)(=O)c1ccc([C@H]2C[C@@H](c3cc(=O)[nH]o3)CCN2)cc1 [5-[(2R,4S)-2-(4-methanesulfonylphenyl)piperidin-4-yl]-2,3-dihydro-1,2-oxazol-3-one] | 6.70 | 
O=c1cc([C@H]2CCN[C@@H](c3ccc(F)cc3)C2)o[nH]1 [5-[(2R,4S)-2-(4-fluorophenyl)piperidin-4-yl]-2,3-dihydro-1,2-oxazol-3-one] | 6.22 | 
NCC1CCC(C(=O)O)CC1 (stereo not shown) [TXA, 4-(aminomethyl)cyclohexane-1-carboxylic acid] |  | pIC50 [1]: 5.18; IC90 [1]: 55400 nM; therapeutic plasma concentration [2]: 30 to 90 µM; allergic skin reaction, fraction of treated [3]: < 1/100; effect on melasma (melasma; topical 5% (˜0.3M) TXA versus vehicle): no effect; erythema (melasma; topical 5% (˜0.3M) TXA): produced erythema; stratum corneum barrier recovery (stratum corneum barrier): enhance stratum corneum barrier recovery; stratum corneum barrier function [4]: improved stratum corneum barrier function
O=c1cc([C@H]2CCN[C@@H](Cc3ccc(F)c(F)c3)C2)o[nH]1 [5-[(2R,4S)-2-[(3,4-difluorophenyl)methyl]piperidin-4-yl]-2,3-dihydro-1,2-oxazol-3-one] | 7.00 | 
O=c1cc([C@H]2CCN[C@@H](Cc3ccc(C(F)(F)F)c(F)c3)C2)o[nH]1 [5-[(2R,4S)-2-{[3-fluoro-4-(trifluoromethyl)phenyl]methyl}piperidin-4-yl]-2,3-dihydro-1,2-oxazol-3-one] | 6.62 | 
NCCCCCC(=O)O [EACA, 6-aminohexanoic acid] |  | pIC50 [1]: 4.14; IC90 [1]: 637000 nM; stratum corneum protease activity [5]: reduction in stratum corneum protease activity
Cn1nnc([C@H]2C[C@@H](c3cc(=O)[nH]o3)CCN2)n1 [5-[(2R,4S)-2-(2-methyl-2H-1,2,3,4-tetrazol-5-yl)piperidin-4-yl]-2,3-dihydro-1,2-oxazol-3-one] | 6.70 | 
O=c1cc([C@H]2CCN[C@@H](c3ccc(C(F)(F)F)nc3)C2)o[nH]1 [5-[(2R,4S)-2-[6-(trifluoromethyl)pyridin-3-yl]piperidin-4-yl]-2,3-dihydro-1,2-oxazol-3-one] | 6.55 | 
CC(C)(C)c1cc(C[C@H]2C[C@@H](c3cc(=O)[nH]o3)CCN2)cc(C(C)(C)C)c1 [5-[(2R,4S)-2-[(3,5-di-tert-butylphenyl)methyl]piperidin-4-yl]-2,3-dihydro-1,2-oxazol-3-one] | 6.00 | 
CC(C)(C)c1cccc([C@H]2C[C@@H](c3cc(=O)[nH]o3)CCN2)c1 [5-[(2R,4S)-2-(3-tert-butylphenyl)piperidin-4-yl]-2,3-dihydro-1,2-oxazol-3-one] | 6.55 | 
O=c1cc([C@H]2CCN[C@@H](c3ccc(C(F)(F)F)cc3)C2)o[nH]1 [5-[(2R,4S)-2-[4-(trifluoromethyl)phenyl]piperidin-4-yl]-2,3-dihydro-1,2-oxazol-3-one] | 7.00 | 
O=c1cc([C@H]2CCN[C@@H](c3ccc(C(F)(F)F)c(F)c3)C2)o[nH]1 [5-[(2R,4S)-2-[3-fluoro-4-(trifluoromethyl)phenyl]piperidin-4-yl]-2,3-dihydro-1,2-oxazol-3-one] | 6.70 | 
O=c1cc([C@H]2CCN[C@@H](Cc3cc(F)c(F)c(F)c3)C2)o[nH]1 [5-[(2R,4S)-2-[(3,4,5-trifluorophenyl)methyl]piperidin-4-yl]-2,3-dihydro-1,2-oxazol-3-one] | 6.85 | 
O=c1cc([C@H]2CCN[C@@H](c3ccc(F)cc3F)C2)o[nH]1 [5-[(2R,4S)-2-(2,4-difluorophenyl)piperidin-4-yl]-2,3-dihydro-1,2-oxazol-3-one] | 6.70 | 
CS(=O)(=O)c1ccc(C[C@H]2C[C@@H](c3cc(=O)[nH]o3)CCN2)cc1 [5-[(2R,4S)-2-[(4-methanesulfonylphenyl)methyl]piperidin-4-yl]-2,3-dihydro-1,2-oxazol-3-one] | 6.40 | 
O=c1cc([C@H]2CCN[C@@H](c3ccc(Cl)cc3Cl)C2)o[nH]1 [5-[(2R,4S)-2-(2,4-dichlorophenyl)piperidin-4-yl]-2,3-dihydro-1,2-oxazol-3-one] | 6.70 | 

Further lines, with some results ahead:

pKd (plasminogen kringle 1) | SMILES | also measured
6.52 | CC(C)(C)c1ccc(C[C@H]2C[C@@H](c3cc(=O)[nH]o3)CCN2)cc1 [5-[(2R,4S)-2-[(4-tert-butylphenyl)methyl]piperidin-4-yl]-2,3-dihydro-1,2-oxazol-3-one] | 
6.52 | O=c1cc([C@H]2CCN[C@@H](c3ccc(OC(F)(F)F)cc3F)C2)o[nH]1 [5-[(2R,4S)-2-[2-fluoro-4-(trifluoromethoxy)phenyl]piperidin-4-yl]-2,3-dihydro-1,2-oxazol-3-one] | 
6.40 | O=c1cc([C@H]2CCN[C@@H](CN3CCC[C@H]3C(F)(F)F)C2)o[nH]1 [5-[(2R,4S)-2-{[(2S)-2-(trifluoromethyl)pyrrolidin-1-yl]methyl}piperidin-4-yl]-2,3-dihydro-1,2-oxazol-3-one] | 
6.52 | O=c1cc([C@H]2CCN[C@@H](c3ccc(C(F)(F)F)cc3F)C2)o[nH]1 [5-[(2R,4S)-2-[2-fluoro-4-(trifluoromethyl)phenyl]piperidin-4-yl]-2,3-dihydro-1,2-oxazol-3-one] | 
6.52 | Cc1cc(C(F)(F)F)ccc1[C@H]1C[C@@H](c2cc(=O)[nH]o2)CCN1 [5-[(2R,4S)-2-[2-methyl-4-(trifluoromethyl)phenyl]piperidin-4-yl]-2,3-dihydro-1,2-oxazol-3-one] | 
6.62 | O=c1cc([C@H]2CCN[C@@H](CN3CCn4c(nnc4C(F)(F)F)C3)C2)o[nH]1 [5-[(2R,4S)-2-{[3-(trifluoromethyl)-5H,6H,7H,8H-[1,2,4]triazolo[4,3-a]pyrazin-7-yl]methyl}piperidin-4-yl]-2,3-dihydro-1,2-oxazol-3-one] | 
6.52 | O=c1cc([C@H]2CCN[C@@H](COC3CCCCC3)C2)o[nH]1 [5-[(2R,4S)-2-[(cyclohexyloxy)methyl]piperidin-4-yl]-2,3-dihydro-1,2-oxazol-3-one] | 
6.52 | O=c1cc([C@H]2CCN[C@@H](c3cc(F)c(F)cc3F)C2)o[nH]1 [5-[(2R,4S)-2-(2,4,5-trifluorophenyl)piperidin-4-yl]-2,3-dihydro-1,2-oxazol-3-one] | 
7.00 | O=c1cc([C@H]2CCN[C@@H](c3ccc(Cl)cc3)C2)o[nH]1 [5-[(2R,4S)-2-(4-chlorophenyl)piperidin-4-yl]-2,3-dihydro-1,2-oxazol-3-one] | 
7.00 | CC(C)(C)c1ccc(C[C@@H]2C[C@@H](c3cc(=O)[nH]o3)CCN2)cc1 [5-[(2S,4S)-2-[(4-tert-butylphenyl)methyl]piperidin-4-yl]-2,3-dihydro-1,2-oxazol-3-one] | 
7.00 | Cc1cc([C@H]2C[C@@H](c3cc(=O)[nH]o3)CCN2)ccc1C(F)(F)F [5-[(2R,4S)-2-[3-methyl-4-(trifluoromethyl)phenyl]piperidin-4-yl]-2,3-dihydro-1,2-oxazol-3-one] | 
7.00 | O=c1cc([C@H]2CCN[C@@H](Cc3ccc(F)cc3F)C2)o[nH]1 [5-[(2R,4S)-2-[(2,4-difluorophenyl)methyl]piperidin-4-yl]-2,3-dihydro-1,2-oxazol-3-one] | 
